From US10179927B2, “Electrochemical detection of microorganisms” (priority 2014, dated 2019)
Like-named read-outs stand apart in the source and are kept apart here. Marks after values point to notes of the source that are not given here.

Tests used:
[1] = tested on: E. coli; experiment: Current from unconjugated redox active reporter moieties mediating electron transfer between E. coli and the electrode in ECs; assay type: cell-based, Escherichia coli; settings: 5×10^5 CFU mL^−1 of E. coli; for Maximum recorded current in ECs: unconjugated reporter 50 μM
Procedure: (§1) Resorufin (TCI-Europe), 2-hydroxy-1,4-naphthoquinone (2H14NQ) (TCI-Europe), 5-hydroxy-1,4-naphthoquinone (5H14NQ) (TCI-Europe) and 5,8-dihydroxy-1,4-naphthoquinone (58H14NQ) (Sigma-Aldrich) were obtained commercially and added to M9 medium in their unconjugated form to achieve a working concentration of 50 μM. Resorufin glycoconjugates (resorufin-β-d-galactopyranoside and resorufin-β-d-glucopyranoside) were obtained commercially (Sigma-Aldrich), whereas 2-hydroxy-1,4-naphthoquinone-β-d-galactopyranoside (2H14NQGal) and 2-hydroxy-1,4-naphthoquinone-β-d-glucopyranoside (2H14NQG1u) were specifically synthesized by Sussex Research Ltd. All reporters were added to a final concentration of 50 μM. Stock concentrations (1.0×10^−3 M) of 2H14NQ and 5H14NQ were prepared by first dissolving in 10 μL of 2 M NaOH and then making up to volume in Type II water (Veolia) whereas 58H14NQ (1.0×10^−3 M) was prepared in 1:1 DMSO:Type II water aliquots. Both stock solutions were stored at −20° C. until needed. Conjugated reporters were maintained as 1 mM stock solutions in Type II water and stored at 5° C.
(§2) Escherichia coli strain BL21 was selected to represent a FIB of human origin that contains the uidA and lacZ genes, i.e. a FC, whereas Aeromonas hydrophila (DSM 6173) is an environmental organism that has the lacZ gene but which is not considered a coliform. All organisms were cultured aerobically for 20 h. E. coli was grown in Luria Bertani (Lennox) medium at 37° C., and A. hydrophile at 30° C. in tryptone soy broth (TSB) in a shaking incubator.
(§3) The resulting overnight cultures were diluted in sterile modified M9 medium (Na2HPO4.7H2O (126 mM); KH2PO4 (110 mM); NH4Cl (93 mM); NaCl (42 mM); 1 mL/L vitamin stock solution; tryptone 12.5 g/L; HEPES: 6 g/L; and macro nutrients). The carbon source was either D-galacturonic acid or D-glucuronic acid (3.75 g/L) to achieve a final inoculum density in the range of 1.0×10^0, 5.0×10^0, 5.0×10^1, 5.0×10^2, 5.0×10^3, 5.0×10^4, and 5.0×10^5 CFU mL^−1 in both electrochemical system and the bioelectrochemical system.
Conical ECs with a working volume of 10 mL were used with a customized Teflon cap to accommodate a three electrode configuration along with gas fittings to maintain a moist anaerobic atmosphere. Carbon felt working electrodes (1×1×0.318 cm) (VWR, Singapore) were kept for 24 h in 1 M HCl and stored in deionized (DI) water before use. The electrodes were connected to titanium wire (0.25 mmØ, Sigma-Aldrich) using a nylon nut and bolt. A coiled titanium wire was used as counter electrode and an Ag/AgCl reference electrode (78 mm, 6 mm Outer Ø, Biologic, France) was connected using a 1 M KCl in 1.5% agar salt bridge. The assembled cell was then filled with 1 M KCl solution ending in a 4 mm glass frit (CoralPor™, Biologic, France). The entire assembly was then autoclaved (121° C. for 15 min). Nine mL of degassed modified M9 medium was added to the ECs and supplemented with a reporter to a final concentration of 5.0×10^−5 M in 10 mL working volume. […]
(§4) Following reporter supplement and inoculation with the test microorganism, the ECs were connected to a multichannel potentiostat (Biologic, France) and cyclic voltammetry (CV) and differential pulse voltammetry (DPV) were performed immediately. Data acquisition was recorded by EC-Lab software (Biologic, France). […] A detection event was calculated as 4 times the standard deviation of the baseline and detection times are expressed as the mean of triplicate analyses unless stated otherwise. […]

[2] = tested on: E. coli; experiment: Current from unconjugated redox active reporter moieties with E. coli in self-powering bioelectrochemical systems (BES, microbial fuel cells); assay type: cell-based, Escherichia coli; settings: 1 kΩ load, ambient temperature
Procedure: as §1, with “5° C. […]” for “5° C.”
Dual chamber U-tube BESs, in the form of microbial fuel cells (MFCs), were constructed with two 90° 28/15 ball-to-plain-end and socket-to-plain-end glass quick fit elbows (17 mm O.D.×1.8 mm wall thickness) (VWR, Singapore) to form the anode and cathode chambers (Sund et al., Appl. Microbiol. Biotechnol. 2007; 76:561-568.). […] A 1 kΩ load was applied across the circuit and potential difference was recorded using an eDAQ e-corder® data acquisition system (ED 1621-16 channel recorder) equipped with Chart™ software (Bronjo Medi, Singapore) at a rate of 1 data point every 5 min. […]
Naphthoquinones are cheap redox active molecules which are compatible with E. coli and can be readily conjugated to pyranose rings (Rau et al. Environ. Sci. Technol. 2002; 36:1497-1504; Park and Zeikus. Appl. Environ. Microbiol. 2000; 66:1292-1297). […]

[3] = tested on: Escherichia coli strain BL21; experiment: Chronoamperometric detection of E. coli with electrochemically active reporters in three-electrode electrochemical systems (ECs); assay type: cell-based; settings: for Detection time (±std dev): chronoamperometry in ECs, reporter 50 μM; for Detection time for E. coli: inoculum sizes between 5×10^5-5×10^3, ECs (Table 1)
Procedure: as §1, §2, §3
Conical ECs with a working volume of 10 mL were used with a customized Teflon cap to accommodate a three electrode configuration along with gas fittings to maintain a moist anaerobic atmosphere. Carbon felt working electrodes (1×1×0.318 cm) (VWR, Singapore) were kept for 24 h in 1 M HCl and stored in deionized (DI) water before use. The electrodes were connected to titanium wire (0.25 mmØ, Sigma-Aldrich) using a nylon nut and bolt. A coiled titanium wire was used as counter electrode and an Ag/AgCl reference electrode (78 mm, 6 mm Outer Ø, Biologic, France) was connected using a 1 M KCl in 1.5% agar salt bridge. The assembled cell was then filled with 1 M KCl solution ending in a 4 mm glass frit (CoralPor™, Biologic, France). The entire assembly was then autoclaved (121° C. for 15 min). Nine mL of degassed modified M9 medium was added to the ECs and supplemented with a reporter to a final concentration of 5.0×10^−5 M in 10 mL working volume. The ECs were then inoculated with the targeted test organism to achieve a final working volume of 10 mL. The headspace was flushed continuously with sterile humidified N2. The ECs were operated at 30° C., 37° C. or 44.5° C. Stirring was maintained continuously with a magnetic stirrer in the dark to prevent photo-bleaching of the light sensitive mediators.
Following reporter supplement and inoculation with the test microorganism, the ECs were connected to a multichannel potentiostat (Biologic, France) and cyclic voltammetry (CV) and differential pulse voltammetry (DPV) were performed immediately. Data acquisition was recorded by EC-Lab software (Biologic, France). Chronoamperometry (CA) was applied for up to 24 h to detect redox active reporter moieties. A detection event was calculated as 4 times the standard deviation of the baseline and detection times are expressed as the mean of triplicate analyses unless stated otherwise. […]

[4] = tested on: mixed culture of E. coli and A. hydrophila; experiment: Detection time of mixed culture of A. hydrophila and E. coli in ECs; assay type: cell-based, Escherichia coli; Aeromonas hydrophila; settings: 44.5° C.; E. coli constant 5×10^5 CFU mL^−1; A. hydrophila from 5×10^2-5×10^5 CFU mL^−1 (FIG. 6)
Procedure: as §2, §3
Conical ECs with a working volume of 10 mL were used with a customized Teflon cap to accommodate a three electrode configuration along with gas fittings to maintain a moist anaerobic atmosphere. Carbon felt working electrodes (1×1×0.318 cm) (VWR, Singapore) were kept for 24 h in 1 M HCl and stored in deionized (DI) water before use. The electrodes were connected to titanium wire (0.25 mmØ, Sigma-Aldrich) using a nylon nut and bolt. A coiled titanium wire was used as counter electrode and an Ag/AgCl reference electrode (78 mm, 6 mm Outer Ø, Biologic, France) was connected using a 1 M KCl in 1.5% agar salt bridge. […]
as §4

[5] = tested on: Escherichia coli; experiment: Suitability of colorimetric detection compounds for bioelectrochemical detection of Escherichia coli; assay type: cell-based; settings: compound used for colorimetric detection of Escherichia coli
Excerpt: Bioelectroanalytical techniques are emerging as ways to enumerate and scrutinize microbial systems. But there is still need in the art for technologies specifically designed for bioelectroanalytical detection of FIB. […] The latter, in particular, makes them unsuitable in self-powering systems.

[6] = tested on: E. coli; settings: Perez et al., cited from earlier work
[7] = 37° C., inoculum 5 × 10^2 CFU mL^−1
[8] = 37° C., inoculum 5 × 10^3 CFU mL^−1
[9] = 37° C., inoculum 5 × 10^4 CFU mL^−1
[10] = 37° C., inoculum 5 × 10^5 CFU mL^−1

SMILES	Maximum recorded current in ECs [1] [μA]	Current observed in BES [2] [μA]	Detection time (±std dev) [3, 7]	Detection time (±std dev) [3, 8]	Detection time (±std dev) [3, 9]	Detection time (±std dev) [3, 10]	Suitability for bioelectrochemical detection [5]	further results
O=C1C=C(O)C(=O)c2ccccc21 [2H14NQ, 2-hydroxy-1,4-naphthoquinone]	~100	40	–	–	–	–	–	Maximum current relative to that achieved with 5H14NQ ([1]; ECs): ~14 times; Maximum current relative to that observed with 58H14NQ ([1]; ECs): ~25 times
O=C1C=C(O[C@@H]2O[C@H](CO)[C@H](O)[C@H](O)[C@H]2O)C(=O)c2ccccc21 [2H14NQGal, 2-hydroxy-1,4-naphthoquinone-β-d-galactopyranoside]	–	–	413(±14) minutes	359(±13) minutes	143(±17) minutes	113(±13) minutes	–	Detection time ([3]; inoculum equivalent to 5×10^3 CFU mL^−1 of Perez et al., n=3): 6.87 h
O=C1C=C(O[C@@H]2O[C@H](CO)[C@@H](O)[C@H](O)[C@H]2O)C(=O)c2ccccc21 [2H14NQGlu, 2-hydroxy-1,4-naphthoquinone-β-d-glucopyranoside]	–	–	339(±41) minutes	187(±31) minutes	142(±11) minutes	120(±21) minutes	–	Detection time (±std dev) ([3]; 30° C., inoculum 5 × 10^2 CFU mL^−1): 832* minutes; Detection time (±std dev) ([3]; 30° C., inoculum 5 × 10^3 CFU mL^−1): 574* minutes; Detection time (±std dev) ([3]; 30° C., inoculum 5 × 10^5 CFU mL^−1): 168* minutes; Detection time ([3]; 44.5° C., 10 organism, FIG. 7): 19 h; Detection time ([3]; 44.5° C., 500 organisms, FIG. 7): 12.5 h; Detection time ([3]; 44.5° C., 5000 organisms, FIG. 7): ~9 h; Detection time ([3]; 44.5° C., "CFU mL^−1 of E. coli" (number not given), FIG. 7): ~19 h; Detection time ([3]; 44.5° C., inoculum size 500 CFU mL^−1, FIG. 7): less than 10 h; Detection time for E. coli [3]: 120 to 188 min; Detection time, mixed culture [4]: 125 to 172 min
Nc1ccc(O[C@@H]2O[C@H](CO)[C@H](O)[C@H](O)[C@H]2O)cc1 [4-APgal, 4-aminophenyl-β-d-galactopyranoside]	–	–	–	–	–	–	not well suited for bioelectrochemical detection	Detection time ([6]; 1 CFU mL^−1 (laboratory sample)): 10 h; Detection time ([6]; 4.5 CFU mL^−1 (marine sample)): 7.3 h
O=C(O)[C@H]1O[C@@H](Oc2ccc([N+](=O)[O-])cc2)[C@H](O)[C@@H](O)[C@@H]1O [4-NPglu, 4-nitrophenol-β-d-glucuronidase]	–	–	–	–	–	–	not well suited for bioelectrochemical detection	–
O=C1C=CC(=O)c2c(O)cccc21 [5H14NQ, 5-hydroxy-1,4-naphthoquinone]	~7	6	–	–	–	–	–	–
O=C(O)[C@H]1O[C@@H](Oc2cccc3cccnc23)[C@H](O)[C@@H](O)[C@@H]1O [8-hydroxyquinoline glucuronide]	–	–	–	–	–	–	not well suited for bioelectrochemical detection	–
O=C1C=CC(=O)c2c(O)ccc(O)c21 [58H14NQ, 5,8-dihydroxy-1,4-naphthoquinone]	~4	2.5	–	–	–	–	–	–
O=c1ccc2nc3ccc(O[C@@H]4O[C@H](CO)[C@@H](O)[C@H](O)[C@H]4O)cc3oc-2c1 [ResGlu, resorufin-β-d-glucopyranoside]	–	–	431(±29) minutes	397(±52) minutes	309(±33) minutes	259(±19) minutes	–	Detection time ([3]; inoculum size 5×10^3 CFU mL^−1, ECs): 6.6 h; Detection time for E. coli [3]: 258 to 397 min
